Test results reported in patent US20260152533A1, “COMBINATION INHIBITORS FOR TREATING FIBROSIS” (Memorial Sloan-Kettering Cancer Center, priority 2021, published 2026).

Tests used:
[1] = tested on: pancreatic stellate cells (PSCs); test: Western blot of PSCs; type: cell-based, mouse; conditions: PSCs, TGFβ
Text: PSCs were isolated from C57BL/6 mice by differential centrifugation as previously described^49 and their mesenchymal origin was validated by analyzing the expression of various mesenchymal and epithelial markers. MFBs were isolated from FVB/N mice by differential centrifugation as previously described^50. DB7 mouse breast cancer cells were obtained from Alexander Borowsky (University of California Davis Comprehensive Cancer Center, Sacramento, CA, USA) through an MTA to Ohio State University (OSU). KPC (Kras^LSL-G12D; Trp53^LSL-R172H; Pdx1-Cre) mouse PDAC cells were a gift from Scott Lowe (Memorial Sloan Kettering Cancer Center. (MSKCC)). All cells were cultured at 37° C. in 5% carbon dioxide (CO2) and 20% oxygen (O2) and were maintained in Dulbecco's Modified Eagles medium (DMEM) (25 mM D-glucose, 2 mM L-glutamine) supplemented with 10% fetal bovine serum (FBS) (Gemini), 100 units/ml penicillin and 100 μg/ml streptomycin. Primary PSC and MFB cells were kept in culture for no more than ten passages. Experiments with iCAFs and myCAFs were performed as previously described^29. In brief, qPSCs were generated by culturing PSCs in a dome of GFR Matrigel (Corning) in DMEM; iCAFs were generated by culturing PSCs in a dome of GFR Matrigel in DMEM conditioned by KPC cells for 48 h; myCAFs were generated by monolayer culture of PSCs. Differentiation was validated by analyzing the expression of iCAF/myCAF markers^29. […]
Lysates were generated by incubating cells or ground tumors in RIPA buffer (Millipore); […] of cleared lysate were analyzed by SDS-polyacrylamide gel electrophoresis (SDS-PAGE) as previously described^11. […] Quantification of band intensities of collagen I relative to […] or vinculin in tumor allograft experiments was performed with Image Lab software v6.0 (Bio-Rad).

[2] = tested on: pyruvate carboxylase (PC); test: Stable isotope tracing in NIH-3T3 cells (surrogate for PC activity); type: cell-based, mouse
Protocol: Cells were plated in six-well cell culture plates at a concentration aimed to reach 0.5-1×10^6 cells at the time of harvest. For quantification of relative metabolite abundance, cells were cultured with glutamine-free DMEM containing different concentrations of L-glutamine and supplemented with 10% dialyzed FBS and in some experiments were treated with TGFβ for 48 hours. For the [U-^13C]and [3,4-^13C]glucose tracing experiments, cells were cultured as above, and in the last 8 hours media was replaced with DMEM without D-glucose and L-glutamine supplemented with 2 mM or 0.2 mM L-glutamine and 10 mM [U-^13C]or [3,4-^13C]D-glucose (Cambridge Isotope Laboratories) and 10% dialyzed FBS. For the [U-^13C]and [1-^13C]lactate tracing experiments, cells were cultured in 2 or 0.2 mM L-glutamine, 10 or 1 mM D-glucose in the presence or absence of 10 mM sodium lactate, and in the last 8 hours media was replaced with DMEM without D-glucose and L-glutamine supplemented with 2 mM or 0.2 mM L-glutamine, 10 or 1 mM D-glucose, 10 mM [U-^13C]or [1-^13C]sodium lactate (Cambridge Isotope Laboratories) and 10% dialyzed FBS. For relative quantification of metabolites by gas chromatography-mass spectroscopy (GC-MS), cells were washed briefly with PBS, which was then fully aspirated and metabolism was quenched by immediately adding 1 mL of 80:20 methanol:water stored at −80° C. containing 20 μM deuterated 2-hydroxyglutarate (d5-2HG) as an internal standard. For stable isotope tracing experiments, metabolism was quenched without the PBS washing step by adding 1 mL of 80:20 methanol:water as above. After overnight incubation at −80° C., the resulting extracts were scraped on dry ice, transferred into a 1.5 mL centrifuge tube, and centrifuged at 20,000 g for 20 minutes at 4° C. The supernatants were collected in clean tubes and dried in a vacuum evaporator (Genevac EZ-2 Elite) for 2 hours.
For [U-^13C]glucose tracing into proteinogenic amino acids, cells were cultured in 10% Gln in the presence or absence of TGFβ for 48 hours. In the last 24 hours, the media including all treatments was replaced with DMEM without L-glutamine and D-glucose and supplemented with 0.2 mM L-glutamine and 10 mM [U-^13C]D-glucose (Cambridge Isotope Laboratories) and 10% dialyzed FBS. For [U-^13C]lactate tracing into ECM, confluent cells were cultured in 10% Gln in the presence of 10 mM [U-^13C]sodium lactate for 6 days. The media was replaced every other day. ECM was decellularized as described above. Cells and ECM were washed with PBS, and proteins were precipitated with methanol:chloroform:water (1:1:1). The interphase was washed with methanol, and the dried pellet was subjected to acid hydrolysis with 6 N hydrochloric acid (HCl) and incubation at 95° C. for 16 hours. Samples were cooled to room temperature and centrifuged at 20,000 g for 10 minutes. The cleared supernatant was dried in a vacuum evaporator (Genevac EZ-2 Elite) for 2 hours, and abundance of aspartate, glutamate/glutamine or hydroxyproline isotopologues was measured by GC-MS as described below.
GC-MS measurements were performed as described before^11. Ions used for quantification of metabolite levels were as follows: d5-2HG m/z 354; citrate m/z 465; alpha-ketoglutarate m/z 304; succinate m/z 247; fumarate m/z 245; malate m/z 335; aspartate m/z 232; hydroxyproline m/z 332; proline m/z 216; glutamate m/z 246; glutamine m/z 245; lactate m/z 219; pyruvate m/z 174. All peaks were manually inspected and verified relative to known spectra for each metabolite. Peak identification and integration were done with MassHunter software vB.09 (Agilent Technologies). For relative quantification of cell samples, integrated peak areas were normalized to the internal standard d5-2HG and to the packed cell volume of each sample. Absolute quantification of hydroxyproline in tumor acid hydrolysates was performed against a standard curve of commercial trans-4-hydroxy-L-proline (Sigma). […]

Which results are given for “TGFβ: transforming growth-factor beta; TGFβ-1 purchased from Peprotech”?
collagen I production ([1]; 20% Gln, 48 hours): unable to proliferate and produce collagen I; GCN2 phosphorylation ([1]; low Gln (20%), 48 hours (FIG. 8J)): showed GCN2 phosphorylation; m+3 labelling of aspartate and glutamate/glutamine incorporated into cellular protein ([2]; 10% Gln, TGFβ 48 hours (FIG. 10I)): reduced; m+2 labelling of citrate, indicative of PDH activity ([2]; TGFβ 48 hours (FIG. 3E)): increased; m+3 and/or m+5 labelling of the metabolites analysed from [U-13C]Glc ([2]; high and low Gln medium, TGFβ 48 hours (FIG. 3E)): reduced; low-Gln increase of m+1 labelling of aspartate, malate and citrate from [3,4-13C]Glc (PC activity) ([2]; low Gln, TGFβ 48 hours (FIGS. 3G and 3H)): suppressed
